Experimental data published in patent EP1900728A1 (Genecare Research Institute Co., Ltd, priority 2005, dated 2006).
Where two headings read alike, the source gives them in different places.

Experiments:
[1] = system: ICAM-1 expression in HT-29 cells; assay: Measurement of ICAM-1 expressing activity (TNFα-induced ICAM-1 expression, cell ELISA); format: cell-based; details: Homo sapiens, Table 6, cell activity inhibition test by method (3), read-out: EVALUATION (IC50 class, inhibition of cell activity)
Description: Method 2: Measurement of ICAM-1 expressing activity
2.0 x 10^4 HT-29 cells (ATCC) were plated onto a 96-well plate, and the cells were cultured for 48 hours using a McCoy' 5A medium (GIBCO) containing 10% inactivated fetal calf serum. The culture medium was removed, a culture medium containing a compound to be evaluated (final DMSO concentration of 0.5%) was added, and this was incubated at 37°C for 30 minutes. Thirty ng/mL of human TNFα (GIBCO) was added, and this was incubated at 37°C for 4 hours. After washing once with a washing solution (PBS containing 0.05% Tween 20), ice-cooled methanol was added, and this was left on ice for 10 minutes and then fixed. After removing methanol, PBS containing 1% BSA was added, and blocking was performed by letting this stand at room temperature for 30 minutes. Anti-ICAM-1 antibody (Santa Cruz Biotechnology) was added, and this was left to stand at room temperature for 1 hour. After washing with the washing solution, POD-labeled secondary antibody was added, and this was left to stand at room temperature for 30 minutes. This was washed, 100 µL of 100 mM citric acid buffer (pH4.2) containing 1 mM TMBZ and 0.03% H2O2 was added, and this was reacted at room temperature for 15 minutes. The reaction was terminated with 100 µL of 2 N H2SO4, and the absorbance at 450 nm was measured using ARVO-HTS (Perkin Elmer).
When cells are stimulated with TNFα, IκBα is degraded after ubiquitination resulting in the activation of NFκB and the promotion of the expression of adhesion factor ICAM-1. Therefore, the suppression of ICAM-1 expression described above serves as an indicator to determine the effectiveness of the compound in the cells.

[2] = biological target: T1, IκBα ubiquitinating enzyme (SCF complex: ROC1, Cullin1, Skp1, His-TrCP1; with E1, UbcH5b) (Homo sapiens, UniProt P62877+P63208+Q13616+Q9Y297); assay: Measurement of ubiquitinating enzyme activity (IκBα ubiquitination, time-resolved fluorescence with Eu(K)-labeled ubiquitin and XL665-labeled anti-GST antibody); format: biochemical
T1 construct: His (polyhistidine); made in house; host or cells: insect cells (baculovirus) for the SCF complex and His-E1; E. coli for His-UBCH5b
How it was run: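 Human SCF complex with E1 and UbcH5b ubiquitinated GST-IκBα pre-phosphorylated by IKKβ (2 mM ATP, pH 7.4, 1 h, RT), with Eu(K)-ubiquitin, 30 min RT. Stopped with EDTA, XL665 anti-GST added for 2 h; 665/620 nm TR-FRET ratio. % inhibition versus no-compound control and no-SCF blank gave IC50.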

[3] = enzyme activity inhibition test, method (1), Table 5, read-out: EVALUATION

T1 sequence (Q9Y297 whole entry): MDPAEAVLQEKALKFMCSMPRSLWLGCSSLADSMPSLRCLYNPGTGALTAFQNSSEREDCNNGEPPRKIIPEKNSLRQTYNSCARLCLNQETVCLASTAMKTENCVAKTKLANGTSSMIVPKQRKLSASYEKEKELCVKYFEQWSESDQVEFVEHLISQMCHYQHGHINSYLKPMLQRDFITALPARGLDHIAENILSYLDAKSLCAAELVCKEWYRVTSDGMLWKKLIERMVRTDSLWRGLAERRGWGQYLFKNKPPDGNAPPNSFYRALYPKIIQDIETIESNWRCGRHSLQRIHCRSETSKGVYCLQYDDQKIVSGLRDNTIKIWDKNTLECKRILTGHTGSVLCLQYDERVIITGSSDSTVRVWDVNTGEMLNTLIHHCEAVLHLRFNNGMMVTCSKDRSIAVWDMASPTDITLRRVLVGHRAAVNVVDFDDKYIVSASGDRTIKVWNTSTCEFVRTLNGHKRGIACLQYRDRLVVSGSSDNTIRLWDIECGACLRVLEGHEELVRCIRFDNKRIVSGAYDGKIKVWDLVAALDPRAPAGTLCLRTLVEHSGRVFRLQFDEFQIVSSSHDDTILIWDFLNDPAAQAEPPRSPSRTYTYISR
T1 sequence (Q13616 whole entry): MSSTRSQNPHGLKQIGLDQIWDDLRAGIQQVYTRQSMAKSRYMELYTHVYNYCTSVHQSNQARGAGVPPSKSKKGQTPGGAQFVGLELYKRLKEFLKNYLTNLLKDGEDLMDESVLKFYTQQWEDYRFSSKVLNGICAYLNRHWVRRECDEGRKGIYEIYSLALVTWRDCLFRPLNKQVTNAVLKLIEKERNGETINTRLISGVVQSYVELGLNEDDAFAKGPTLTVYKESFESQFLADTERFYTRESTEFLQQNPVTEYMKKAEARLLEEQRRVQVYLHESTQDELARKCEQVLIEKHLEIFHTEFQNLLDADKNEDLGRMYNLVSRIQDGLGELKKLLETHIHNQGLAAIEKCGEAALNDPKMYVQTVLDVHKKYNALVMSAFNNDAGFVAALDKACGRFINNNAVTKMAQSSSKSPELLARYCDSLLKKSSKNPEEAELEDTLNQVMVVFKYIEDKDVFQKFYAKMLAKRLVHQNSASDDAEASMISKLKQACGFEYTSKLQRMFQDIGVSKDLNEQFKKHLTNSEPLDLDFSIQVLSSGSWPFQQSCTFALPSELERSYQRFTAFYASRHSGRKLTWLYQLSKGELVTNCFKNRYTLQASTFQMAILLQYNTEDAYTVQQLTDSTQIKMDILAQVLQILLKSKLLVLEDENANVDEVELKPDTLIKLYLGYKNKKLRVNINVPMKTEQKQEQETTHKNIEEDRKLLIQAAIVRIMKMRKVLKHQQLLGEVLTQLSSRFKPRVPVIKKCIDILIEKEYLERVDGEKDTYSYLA
T1 sequence (P63208 whole entry): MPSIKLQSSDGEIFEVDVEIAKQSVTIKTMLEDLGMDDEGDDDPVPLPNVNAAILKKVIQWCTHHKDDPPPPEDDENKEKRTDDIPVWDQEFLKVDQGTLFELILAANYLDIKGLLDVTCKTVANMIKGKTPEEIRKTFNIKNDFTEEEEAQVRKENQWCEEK
T1 sequence (P62877 whole entry): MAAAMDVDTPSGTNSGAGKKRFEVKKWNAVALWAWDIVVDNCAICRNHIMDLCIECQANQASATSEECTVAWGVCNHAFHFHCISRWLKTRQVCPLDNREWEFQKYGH

Compound | IC50 [1] [µM] | IC50 [2, 3] [µM] | IC50 [2] [µM] | IC50 ([2]; read-out: EVALUATION, enzyme activity inhibition test, method (1), Table 5) [µM]
CC1=NN(c2ccc(C(=O)O)cc2)C(=O)C1=Cc1ccc(OCc2ccc([N+](=O)[O-])cc2)cc1 [Compound 541] | < 10 |  | < 10 | 
CC1=NN(c2cccc(S(N)(=O)=O)c2)C(=O)/C1=C\c1cc2ccccc2o1 [Compound 164] | < 10 | < 10 |  | 
CC1=NN(c2ccc(S(N)(=O)=O)cc2)C(=O)/C1=C\c1ccc(NC(=O)c2ccccc2)cc1 [Compound 224] | 10 to 20 | < 10 |  | 
CC1=NN(c2ccccc2)C(=O)/C1=C\c1ccc2[nH]ccc2c1 [Compound 127] | < 40 | < 10 |  | 
O=C1/C(=C\c2ccc(CO)o2)C(Cc2ccccc2)=NN1c1ccccc1 [Compound 27] | 10 to 20 | < 10 |  | 
COCC1=NN(c2ccc(C(=O)O)cc2)C(=O)/C1=C\c1ccc2c(c1)OCCO2 [Compound 239] | < 10 | < 10 |  | 
CCCCC1=NN(c2ccccc2)C(=O)C1=Cc1ccc(-n2cccn2)cc1 [Compound 58] | < 40 |  | < 10 | 
COCC1=NN(c2ccc(C(=O)O)cc2)C(=O)C1=Cc1ccc(OCc2ccccc2)c(OC)c1 [Compound 234, 4-[4-(Benzyloxy-3-methoxy-benzylidine)-3-methoxymethyl-5-oxo-4,5-dihydroxy-pyrazol-1-yl] benzoic acid] | < 10 |  |  | < 10
CCCCC1=NN(c2ccccc2)C(=O)/C1=C\c1ccc(N2CCN(C(=O)OC)CC2)cc1 [Compound 54] | < 40 | 10 to 20 |  | 
O=C(O)c1ccc(N2N=C(c3ccoc3)/C(=C/c3ccc(-c4ccccc4F)o3)C2=O)cc1 [Compound 246] | < 10 | < 10 |  | 
COc1ccccc1C(=O)Nc1ccc(C=C2C(=O)N(c3ccc(S(N)(=O)=O)cc3)N=C2C)cc1 [Compound 228] | 10 to 20 |  | < 10 | 
COc1cc(/C=C2\C(=O)N(c3ccc(C(=O)O)cc3)N=C2c2ccoc2)ccc1O [Compound 244] | 10 to 20 | < 10 |  | 
COc1cc(/C=C2\C(=O)N(c3ccccc3)N=C2C2CC2)ccc1O [Compound 69] | 10 to 20 | 10 to 20 |  | 
COc1ccc(C2=NN(c3ccc(C(=O)O)cc3)C(=O)C2=Cc2ccc3ccccc3c2)cc1OC [Compound 333] | 10 to 20 |  | 10 to 20 | 
COc1cc(/C=C2/C(=O)N(C3CCCCC3)N=C2C)ccc1O [Compound 199] | < 10 | 10 to 20 |  | 
CC1=NN(c2ccc(S(N)(=O)=O)cc2)C(=O)C1=Cc1cccc2ccccc12 [Compound 119] | < 10 |  | 10 to 20 | 
COCC1=NN(c2ccc(C(=O)O)cc2)C(=O)/C1=C\c1ccc(N2CCCC2)cc1 [Compound 236] | 10 to 20 | < 10 |  | 
COCC1=NN(c2ccc(C(=O)O)cc2)C(=O)/C1=C\c1ccc(-n2ccnc2)cc1 [Compound 238] | < 40 | < 10 |  | 
COCC1=NN(c2ccccc2)C(=O)/C1=C\c1ccc2ccccc2c1 [Compound 2] | 10 to 20 | 10 to 20 |  | 
CC1=NN(c2ccc(S(N)(=O)=O)cc2)C(=O)/C1=C\c1cc2ccccc2o1 [Compound 168] | 10 to 20 | < 10 |  | 
CCCCC1=NN(c2ccccc2)C(=O)/C1=C\c1nccs1 [Compound 105] |  | < 40 |  | 
CC1=NN(c2cccc(S(N)(=O)=O)c2)C(=O)/C1=C\c1ccc(N2CCNCC2)cc1 [Compound 184] |  | 10 to 20 |  | 
CC1=NN(c2ccc(S(N)(=O)=O)cc2)C(=O)/C1=C\c1ccccc1O [Compound 219] |  | < 40 |  | 
COc1cc(/C=C2\C(=O)N(C)N=C2C)ccc1O [Compound 132] |  | < 40 |  | 
CC1=NN(c2cccc(S(N)(=O)=O)c2)C(=O)/C1=C\c1ccc(N2CCCC2CO)cc1 (stereo not drawn) [Compound 174] |  | < 40 |  | 
O=C1/C(=C\c2ccc3c(c2)OCCO3)C(c2ccncc2)=NN1c1ccccc1 [Compound 46] |  | < 40 |  | 
CC1=NN(c2cccc(S(N)(=O)=O)c2)C(=O)/C1=C\c1ccc(N2CCN(c3ccccc3)CC2)cc1 [Compound 170] |  | < 10 |  | 
COCC1=NN(c2ccccc2)C(=O)/C1=C\c1ccc2c(c1)OCCO2 [Compound 9] |  | 10 to 20 |  | 

Now from value to molecule, other results behind:

IC50 [1] [µM] | IC50 [2, 3] [µM] | Compound | IC50 [2] [µM] | IC50 ([2]; read-out: EVALUATION, enzyme activity inhibition test, method (1), Table 5) [µM]
< 40 | 10 to 20 | COCCC1=NN(c2cccc(C(=O)O)c2)C(=O)/C1=C\c1ccc(-c2cnn(C)c2)o1 [Compound 505] |  | 
10 to 20 | < 10 | CCCCC1=NN(c2ccc(C(=O)O)cc2)C(=O)/C1=C\c1ccc(-n2cccn2)cc1 [Compound 305] |  | 
< 40 | < 10 | CC1=NN(c2ccc(C(=O)O)cc2)C(=O)/C1=C\c1ccc2c(ccn2Cc2cc(C)on2)c1 [Compound 496] |  | 
< 40 | < 10 | CC1=NN(c2ccc(C(=O)O)cc2)C(=O)/C1=C\c1cc2ccccc2o1 [Compound 429] |  | 
< 10 | 10 to 20 | O=C(O)c1cccc(N2N=C(Cc3ccccc3)/C(=C/c3ccc(-c4ccccc4F)o3)C2=O)c1 [Compound 519] |  | 
< 40 | 10 to 20 | CC1=NN(c2cccc(C(=O)O)c2)C(=O)/C1=C\c1ccc(-c2ccccc2F)o1 [Compound 486] |  | 
10 to 20 | < 10 | CC1=NN(c2ccc(C(=O)O)cc2)C(=O)/C1=C\c1ccc(-n2ccnc2)cc1 [Compound 258] |  | 
< 40 | < 10 | CC1=NN(c2ccc(C(=O)O)cc2)C(=O)/C1=C\c1ccc2c(ccn2CC2CCCCC2)c1 [Compound 498] |  | 
10 to 20 | < 10 | CC1=NN(c2ccc(C(=O)O)cc2)C(=O)/C1=C\c1ccc2ccccc2c1 [Compound 253] |  | 
< 40 | 10 to 20 | CC1=NN(c2cccc(C(=O)O)c2)C(=O)/C1=C\c1ccc(N2CCN(C(=O)OC(C)(C)C)CC2)cc1 [Compound 437] |  | 
10 to 20 | 10 to 20 | Cn1cc(-c2ccc(/C=C3\C(=O)N(c4ccc(C(=O)O)cc4)N=C3Cc3ccccc3)o2)cn1 [Compound 518] |  | 
< 40 | < 10 | CC1=NN(c2cccc(C(=O)O)c2)C(=O)/C1=C\c1ccc2c(ccn2C(=O)c2cccn2C)c1 [Compound 532] |  | 
< 40 | < 10 | CN1CCN(c2ccc(/C=C3\C(=O)N(c4ccc(C(=O)O)cc4)N=C3C3CC3)cc2)CC1 [Compound 321] |  | 
< 40 | < 10 | CC1=NN(c2cccc(C(=O)O)c2)C(=O)/C1=C\c1ccc(N2CCOCC2)cc1 [Compound 441] |  | 
10 to 20 | < 10 | CCCCC1=NN(c2ccc(C(=O)O)cc2)C(=O)/C1=C\c1ccc(CO)o1 [Compound 300] |  | 
10 to 20 | 10 to 20 | CCCCC1=NN(c2ccc(C(=O)O)cc2)C(=O)/C1=C\c1cccc2nccnc12 [Compound 297] |  | 
< 40 | 10 to 20 | CC1=NN(c2ccc(C(=O)O)cc2)C(=O)/C1=C\c1ccc(N2CCN(C(=O)OC(C)(C)C)CC2)cc1 [Compound 436] |  | 
10 to 20 | < 10 | COc1ccc(C2=NN(c3ccc(C(=O)O)cc3)C(=O)/C2=C\c2ccc(OCc3ccccc3)c(OC)c2)cc1OC [Compound 277] |  | 
< 40 | < 10 | O=C(O)c1ccc(N2N=C(C3CC3)/C(=C/c3ccc4[nH]ccc4c3)C2=O)cc1 [Compound 482] |  | 
10 to 20 | 10 to 20 | COc1cc(/C=C2\C(=O)N(c3ccc(C(=O)O)cc3)N=C2Cc2ccccc2)ccc1OCc1ccccc1 [Compound 265] |  | 
 | 10 to 20 | CCCCC1=NN(c2ccc(C(=O)O)cc2)C(=O)/C1=C\c1ccc2ccccc2c1 [Compound 336] |  | 
 | 10 to 20 | CC1=NN(c2ccc(C(=O)O)cc2)C(=O)/C1=C\c1ccc(S(=O)(=O)O)o1 [Compound 525] |  | 
 | < 40 | O=C(O)c1ccc(N2N=C(c3ccccn3)/C(=C/c3ccc(-n4cccn4)cc3)C2=O)cc1 [Compound 294] |  | 
 | < 40 | COc1ccc(C2=NN(c3ccc(C(=O)O)cc3)C(=O)C2=Cc2ccc(-n3cncn3)cc2)cc1OC [Compound 343] |  | 
 | < 40 | O=C(O)c1ccc(N2N=C(Cc3ccccc3)/C(=C/c3nccs3)C2=O)cc1 [Compound 270] |  | 
 | < 40 | COC(=O)N1CCN(c2ccc(C=C3C(=O)N(c4ccc(C(=O)O)cc4)N=C3c3ccncc3)cc2)CC1 [Compound 344] |  | 
 | < 40 | CC1=NN(c2cccc(C(=O)O)c2)C(=O)/C1=C\c1c(C)nn(C)c1Cl [Compound 513] |  | 
 | < 10 | CC1=NN(c2cccc(C(=O)N3CCC(C(=O)O)CC3)c2)C(=O)/C1=C\c1ccc2[nH]ccc2c1 [Compound 374] |  | 
